Measurements as given in US10463747B2, “Method of developing a vaccine using peptide-poly IC complexes” (H. Lee Moffitt Cancer Center and Research Institute, Inc., priority 2011, dated 2019).
Where no end group is shown, it is not given here.

What was measured:
[1] = tested on: CD8 T cell responses of peptide epitope HPV16-E749 (RAHYNIVTF); assay: Tetramer analysis of CD8 T cell responses after i.v. prime-boost vaccination with HPV16-E7 peptide mixed with Poly-IC; format: in vivo, mice; settings: for immunogenicity of peptide epitope (CD8 T cell response, tetramer analysis): i.v. prime-boost 2 weeks apart, 30 μg peptide mixed with 50 μg Poly-IC, blood 7 days after boost
Method: CD8 T cell responses of peptide epitope HPV16-E749 (RAHYNIVTF) (SEQ ID NO:8) and HPV16-E749/1A (AAHYNIVTF) (SEQ ID NO:9) measured by tetramer analysis after i.v. prime-boost (2 weeks apart) vaccination using 30 μg peptide mixed with 50 μg Poly-IC. Immune responses in 3 individual mice measured 7 days after the boost in blood samples. Numbers below the oval gates correspond to the % tetramer positive (antigen-specific) cells of the total CD8 T cell population.
Comparison of CD8 T cell responses of peptide epitope HPV16-E749 (RAHYNIVTF) (SEQ ID NO:8) injected together with 50 μg Poly-IC (top panels) or 5 hours after the Poly-IC (bottom panels). Immune responses in 3 individual mice measured 7 days after an identical boost (12 days apart) in blood samples. Numbers below the oval gates correspond to the % tetramer positive (antigen-specific) cells of the total CD8 T cell population.

[2] = tested on: CD8 T cell responses of peptide epitope Trp1455/9M (TAPDNLGYM); assay: Tetramer analysis of CD8 T cell responses after i.v. prime-boost vaccination with modified Trp1 peptide mixed with Poly-IC; format: in vivo, mice; settings: for immunogenicity of peptide epitope (CD8 T cell response, tetramer analysis): i.v. prime-boost 2 weeks apart, blood 7 days after boost; for immunogenicity of peptide epitope compared with hepta-arginine (R)7 tail: three-arginine tail, FIG. 2
Method: CD8 T cell responses of peptide epitope Trp1455/9M (TAPDNLGYM) (SEQ ID NO:2) containing 3 types of tails with charged amino acids (R, K or E) and a short linker (MFV) (SEQ ID NO:3) were measured by tetramer analysis after i.v. prime-boost (2 weeks apart) vaccination using 120 μg peptide mixed with 50 μg Poly-IC. These sequences correspond to (R)7-MFV-TAPDNLGYM (SEQ ID NO:4); (K)7-MFV-TAPDNLGYM (SEQ ID NO:5); and (E)7-MFV-TAPDNLGYM (SEQ ID NO:6) respectively. Immune responses in 3 individual mice measured 7 days after the boost in blood samples. Numbers below the rectangular gates correspond to the % tetramer positive (antigen-specific) cells of the total CD8 T cell population.
The sequence for the three-arginine tail is (R)3-MFVTAPDNLGYM (SEQ ID NO:7).
CD8 T cell responses of peptide epitope Trp1455/9M (TAPDNLGYM) (SEQ ID NO:2) containing 2 types of hydrophobic tails (LMFVMFV-TAPDNLGYM (SEQ ID NO:10) and (Pam)2KMFV-TAPDNLGYM (SEQ ID NO:11)) at the amino terminus end were measured by tetramer analysis after i.v. prime-boost (2 weeks apart) vaccination using peptide mixed with 50 μg Poly-IC. Immune responses in 3 individual mice measured 7 days after the boost in blood samples. Numbers below the rectangular gates correspond to the % tetramer positive (antigen-specific) cells of the total CD8 T cell population.
Comparison of CD8 T cell responses of peptide epitope (pam)2Trp455/9M [(Pam)2KMFV-TAPDNLGYM] (SEQ ID NO:11) injected together with 50 μg Poly-IC (top panels) or 3.5 hours after the Poly-IC (bottom panels). Immune response in 3 individual mice measured 7 days after an identical boost (12 days apart) in blood samples. Numbers below the rectangular gates correspond to the % tetramer positive (antigen-specific) cells of the total CD8 T cell population.

[3] = tested on: antigen-specific CD8 T lymphocytes; assay: Immunogenicity of modified peptides with immune adjuvants (general observations, adjuvant type and timing); settings: in vivo
Method: Arginine-containing peptides and the hydrophobic peptides are highly immunogenic when administered together with Poly-IC because they are able to form complexes. This is supported by the observations that if the Poly-IC is injected intravenously (i.v) 3.5 to 5 hr before the peptide (also i.v.), then the immune responses are dramatically lower as compared to circumstances when both peptide and Poly-IC are administered together (FIGS. 7 and 8).
The inventors are developing assays that measure the formation of these complexes. The data has been observed with Poly-IC, which is both a TLR3 agonist and ligand for RIG-1 like receptors, or cytoplasmic helicases.
There are examples of antigens (proteins or peptides) that are conjugated to antibodies specific for cell surface molecules expressed on antigen-presenting cells in order to specifically target the antigens to these cells to generate immune responses. […] This is likely due to the antibodies, while targeting the antigen to the appropriate antigen-presenting cell, are not sufficiently stimulatory to activate the cell to become optimal to stimulate the T cell responses. In addition, the ODN-CpG-peptide complexes are not captured as efficiently due to their relatively small size, as compared to the peptide-poly-IC complexes, by the scavenger receptors on the antigen-presenting cells. […]

[4] = target: T1, MHC molecule (Mus musculus, UniProt P01899); settings: arginine to alanine substitution at position 1; cited from earlier work
T1 sequence (P01899 25-362): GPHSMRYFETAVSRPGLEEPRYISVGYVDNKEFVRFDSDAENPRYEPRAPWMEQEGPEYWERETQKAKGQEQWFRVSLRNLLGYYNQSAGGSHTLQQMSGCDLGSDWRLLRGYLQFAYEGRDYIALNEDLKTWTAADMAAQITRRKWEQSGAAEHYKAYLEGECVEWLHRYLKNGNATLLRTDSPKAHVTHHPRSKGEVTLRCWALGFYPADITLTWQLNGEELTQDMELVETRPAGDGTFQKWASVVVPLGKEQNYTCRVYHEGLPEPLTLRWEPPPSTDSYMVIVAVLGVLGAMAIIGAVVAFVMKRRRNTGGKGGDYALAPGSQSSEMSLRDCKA
T1 sequence (P01887 21-119 partner): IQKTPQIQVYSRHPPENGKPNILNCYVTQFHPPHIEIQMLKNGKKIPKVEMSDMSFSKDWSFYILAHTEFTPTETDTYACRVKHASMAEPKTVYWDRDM

[5] = 50 μg Poly-IC, 7 days after identical boost (12 days apart), blood
[6] = hydrophobic tail at amino terminus, peptide mixed with 50 μg Poly-IC

## RAHYNIVTF (peptide epitope hpv16-e7 49) [HPV16-E749]
[1]; [5]
  immune response, peptide injected together with Poly-IC versus 5 hours after the Poly-IC: stronger immune responses
[1]
  immunogenicity of peptide epitope (CD8 T cell response, tetramer analysis): more immunogenic than AAHYNIVTF

## (Pam)2KMFV-TAPDNLGYM (KMFVTAPDNLGYM; not fully specified (residue 1); printed as (Pam)2KMFV-TAPDNLGYM)
[2]; [5]
  immune response, peptide injected together with Poly-IC versus 3.5 hours after the Poly-IC: stronger immune responses
[2]; [6]
  immunogenicity of peptide epitope (CD8 T cell response, tetramer analysis): increase the immunogenicity

## (R)3-MFVTAPDNLGYM (RRRMFVTAPDNLGYM; 3 arginine tail epitope Trp1 455/9m)
[2]
  immunogenicity of peptide epitope compared with hepta-arginine (R)7 tail: increases immunogenicity of a peptide epitope similar to the results obtained from a hepta-arginine (R)7 tail
[2]; listed as (R)3
  immunogenicity of peptide epitope compared with hepta-arginine (R)7 tail: function as well as peptides with seven arginines (R)7

## LMFVMFV-TAPDNLGYM (LMFVMFVTAPDNLGYM; peptide epitope Trp1 455/9m with hydrophobic tail)
[2]; [6]
  immunogenicity of peptide epitope (CD8 T cell response, tetramer analysis): increase the immunogenicity

## (R)7-MFV-TAPDNLGYM (RRRRRRRMFVTAPDNLGYM; 7 arginine tail epitope Trp1 455/9m)
[2]; charged amino acid tail + MFV linker, 120 μg peptide mixed with 50 μg Poly-IC
  immunogenicity of peptide epitope (CD8 T cell response, tetramer analysis): increases the immunogenicity
[2]; charged amino acid tail + MFV linker, 120 μg peptide mixed with 50 μg Poly-IC, listed as R7
  immunogenicity of peptide epitope (CD8 T cell response, tetramer analysis): function as good immunogens

## polyinosinic:polycytidylic acid [poly-IC]
[3]
  effect on immune responses of injection prior to the injection of peptide-poly-IC complexes: inhibition of the immune responses
  generation of secondary (booster) immune responses by adjuvant: very potent

## AAHYNIVTF (peptide epitope hpv16-e7 49/1a) [HPV16-E749/1A]
[1]
  immunogenicity of peptide epitope (CD8 T cell response, tetramer analysis): reduces its immunogenicity
[1]; listed as AAHYNIVTF
  immunogenicity of peptide epitope (CD8 T cell response, tetramer analysis): reduced dramatically the immunogenicity
[4]
  capacity of the peptide to bind to the MHC molecule and be recognized by T cells: does not interfere with the capacity of the peptide to bind to the MHC molecule and be recognized by T cells
